Data taken from patent US4677100A, “Cephalosporin derivatives” (Banyu Pharmaceutical Co., Ltd., priority 1984, dated 1987).
Converted amounts (≈) assume the structure as drawn.

Columns and labels:
S. aureus NIHJJC-1 = test: MIC, agar plate dilution method; assay type: cell-based; conditions: Staphylococcus aureus, NIHJJC1; S. aureus NIHJJC-1; 10^6 CFU/ml; Sensitivity Disk Agar; read-out: Minimum Inhibitory Concentration
Experimental: (§1) The minimum inhibitory concentrations (MIC: μg/ml) of the compounds of the present invention against various microorganisms were measured by an agar plate dilution method (inoculum size: 10^6 CFU/ml) by using Sensitivity Disk Agar (Nissui) in comparison with Cefotaxime and Ceftazidime as comparative compounds.

E. coli W3630/Rms212 = test: MIC, agar plate dilution method; assay type: cell-based; conditions: Escherichia coli, W3630/RMS212, read-out: Minimum Inhibitory Concentration
Experimental: as §1

P. vulgaris OB1043 = test: MIC, agar plate dilution method; assay type: cell-based; conditions: Proteus vulgaris; P. vulgaris OB1043; 10^6 CFU/ml; Sensitivity Disk Agar; read-out: Minimum Inhibitory Concentration
Experimental: as §1

E. coli W3630/Rms213 = test: MIC, agar plate dilution method; assay type: cell-based; conditions: Escherichia coli, W3630/RMS213, read-out: Minimum Inhibitory Concentration
Experimental: as §1

K. pneumoniae No. 42 = test: MIC, agar plate dilution method; assay type: cell-based; conditions: Klebsiella pneumoniae; K. pneumoniae No. 42; 10^6 CFU/ml; Sensitivity Disk Agar; read-out: Minimum Inhibitory Concentration
Experimental: as §1

S. aureus JS-1 = test: MIC, agar plate dilution method; assay type: cell-based; conditions: Staphylococcus aureus, JS1; S. aureus JS-1; 10^6 CFU/ml; Sensitivity Disk Agar; read-out: Minimum Inhibitory Concentration
Experimental: as §1

E. coli NIHJJC-2 = test: MIC, agar plate dilution method; assay type: cell-based; conditions: Escherichia coli, NIHJJC2; E. coli NIHJJC-2; 10^6 CFU/ml; Sensitivity Disk Agar; read-out: Minimum Inhibitory Concentration
Experimental: as §1

E. cloaceae Nek 39 = test: MIC, agar plate dilution method; assay type: cell-based; conditions: E. cloaceae Nek 39; 10^6 CFU/ml; Sensitivity Disk Agar; read-out: Minimum Inhibitory Concentration
Experimental: as §1

S. marcescens No. 16-2 = test: MIC, agar plate dilution method; assay type: cell-based; conditions: Serratia marcescens, NO.162; S. marcescens No. 16-2; 10^6 CFU/ml; Sensitivity Disk Agar; read-out: Minimum Inhibitory Concentration
Experimental: as §1

P. vulgaris No. 33 = test: MIC, agar plate dilution method; assay type: cell-based; conditions: Proteus vulgaris; P. vulgaris No. 33; 10^6 CFU/ml; Sensitivity Disk Agar; read-out: Minimum Inhibitory Concentration
Experimental: as §1

E. coli CSH2 = test: MIC, agar plate dilution method; assay type: cell-based; conditions: Escherichia coli, 10^6 CFU/ml, Sensitivity Disk Agar, read-out: Minimum Inhibitory Concentration
Experimental: as §1

E. coli C/Rms149 = test: MIC, agar plate dilution method; assay type: cell-based; conditions: Escherichia coli, read-out: Minimum Inhibitory Concentration
Experimental: as §1

C. freundii No. 7 = test: MIC, agar plate dilution method; assay type: cell-based; conditions: Citrobacter freundii; C. freundii No. 7; 10^6 CFU/ml; Sensitivity Disk Agar; read-out: Minimum Inhibitory Concentration
Experimental: as §1

E. coli CSH = test: MIC, agar plate dilution method; assay type: cell-based; conditions: Escherichia coli, read-out: Minimum Inhibitory Concentration
Experimental: as §1

A. calcoaceticus No. 14 = test: MIC, agar plate dilution method; assay type: cell-based; conditions: Acinetobacter calcoaceticus; for MIC: A. calcoaceticus No. 14, 10^6 CFU/ml, Sensitivity Disk Agar, read-out: Minimum Inhibitory Concentration
Experimental: as §1

P. mirabilis JY10 = test: MIC, agar plate dilution method; assay type: cell-based; conditions: Proteus mirabilis; P. mirabilis JY10; 10^6 CFU/ml; Sensitivity Disk Agar; read-out: Minimum Inhibitory Concentration
Experimental: as §1

E. coli ML1410/Rte16 = test: MIC, agar plate dilution method; assay type: cell-based; conditions: Escherichia coli, ML1410/RTE16, read-out: Minimum Inhibitory Concentration
Experimental: as §1

P. maltophilia IID 1275 = test: MIC, agar plate dilution method; assay type: cell-based, Pseudomonas maltophilia; conditions: for antibacterial activity relative to the compound of Reference Example: Pseudomonas maltophilia resistant to all cephalosporins; for MIC: Stenotrophomonas maltophilia, IID1275, P. maltophilia IID 1275, 10^6 CFU/ml, Sensitivity Disk Agar, read-out: Minimum Inhibitory Concentration
Experimental: as §1

[1] = system: Gram-positive bacteria and Gram-negative bacteria; test: antibacterial activity, general statement; assay type: cell-based; conditions: sensitive and resistant bacteria
Experimental: as §1

P. cepacia 23 = test: MIC, agar plate dilution method; assay type: cell-based, Pseudomonas cepacia; conditions: for MIC: Burkholderia cepacia, P. cepacia 23, 10^6 CFU/ml, Sensitivity Disk Agar, read-out: Minimum Inhibitory Concentration; for antibacterial activity relative to the compound of Reference Example: Pseudomonas cepacia 23
Experimental: as §1

P. aeruginosa AK109 = test: MIC, agar plate dilution method; assay type: cell-based, Pseudomonas aeruginosa; conditions: for antibacterial activity relative to the compound of Reference Example: Pseudomonas aeruginosa AK109; for MIC: Pseudomonas aeruginosa, P. aeruginosa AK109, 10^6 CFU/ml, Sensitivity Disk Agar, read-out: Minimum Inhibitory Concentration
Experimental: as §1

P. aeruginosa AKR17 = test: MIC, agar plate dilution method; assay type: cell-based, Pseudomonas aeruginosa; conditions: for antibacterial activity relative to the compound of Reference Example: Pseudomonas aeruginosa AKR-17, resistant to all cephalosporins including Ceftazidime; for MIC: Pseudomonas aeruginosa, P. aeruginosa AKR17, 10^6 CFU/ml, Sensitivity Disk Agar, read-out: Minimum Inhibitory Concentration
Experimental: as §1

SMILES | MIC (S. aureus NIHJJC-1) [µg/mL] | MIC (E. coli W3630/Rms212) [µg/mL] | MIC (P. vulgaris OB1043) [µg/mL] | MIC (E. coli W3630/Rms213) [µg/mL] | MIC (K. pneumoniae No. 42) [µg/mL] | MIC (S. aureus JS-1) [µg/mL] | MIC (E. coli NIHJJC-2) [µg/mL] | MIC (E. cloaceae Nek 39) [µg/mL] | MIC (S. marcescens No. 16-2) [µg/mL] | MIC (P. vulgaris No. 33) [µg/mL] | MIC (E. coli CSH2) [µg/mL] | MIC (E. coli C/Rms149) [µg/mL] | MIC (C. freundii No. 7) [µg/mL] | MIC (E. coli CSH) [µg/mL] | antibacterial activity relative to the compound of Reference Example (A. calcoaceticus No. 14) | MIC (A. calcoaceticus No. 14) [µg/mL] | MIC (P. mirabilis JY10) [µg/mL] | MIC (E. coli ML1410/Rte16) [µg/mL] | MIC (P. maltophilia IID 1275) [µg/mL] | antibacterial activity (in words) [1] | further results
CC(C)(ON=C(C(=O)NC1C(=O)N2C(C(=O)[O-])=C(C[N+]3(C)Cc4cc(O)c(O)cc4C3)CSC12)c1csc(N)n1)C(=O)O (centres unmarked) [Ex. 7-E, 7-[(Z)-2-(2-aminothiazol-4-yl)-2-(1-carboxy-1-methylethoxyimino)acetamido]-3-(5,6-dihydroxy-methyl-2-methyl-2-isoindolinium)methyl-3-cephem-4-carboxylate] | 25 (≈ 39.5 µM) | ≤ 0.05 | 0.1 (≈ 0.158 µM) | ≤ 0.05 | ≤ 0.05 | > 25 | ≤ 0.05 | ≤ 0.05 | 0.39 (≈ 0.616 µM) | 0.2 (≈ 0.316 µM) | ≤ 0.05 | ≤ 0.05 | 0.78 (≈ 1.23 µM) | 0.1 (≈ 0.158 µM) | at least 32 times | 0.1 (≈ 0.158 µM) | 0.1 (≈ 0.158 µM) | ≤ 0.05 | 3.12 (≈ 4.93 µM) | particularly strong antibacterial activities | antibacterial activity relative to the compound of Reference Example (P. maltophilia IID 1275): at least twice as strong; MIC (P. cepacia 23): ≤ 0.05 µg/mL; antibacterial activity relative to the compound of Reference Example (P. cepacia 23): at least 32 times; antibacterial activity relative to the compound of Reference Example (P. aeruginosa AK109): at least 16 times; MIC (P. aeruginosa AK109): ≤ 0.05 µg/mL; antibacterial activity relative to the compound of Reference Example (P. aeruginosa AKR17): at least 32 times; MIC (P. aeruginosa AKR17): ≤ 0.05 µg/mL
C[N+]1(CC2=C(C(=O)[O-])N3C(=O)C(NC(=O)C(=NOC4(C(=O)O)CCCC4)c4csc(N)n4)C3SC2)Cc2cc(O)c(O)cc2C1 (centres unmarked) [Ex. 12-C, 7-[(Z)-2-(2-aminothiazol-4-yl)-2-(1-carboxy-1-cyclopentyloxyimino)acetamido]-3-(5,6-dihydroxy-2-methyl-2-isoindolinium)methyl-3-cephem-4-carbcxylate] | 25 (≈ 38 µM) | ≤ 0.05 | ≤ 0.05 | ≤ 0.05 | 0.1 (≈ 0.152 µM) | > 25 | ≤ 0.05 | 0.1 (≈ 0.152 µM) | 0.39 (≈ 0.592 µM) | 0.1 (≈ 0.152 µM) | 0.1 (≈ 0.152 µM) | ≤ 0.05 | 1.56 (≈ 2.37 µM) | 0.1 (≈ 0.152 µM) | at least 32 times | 0.2 (≈ 0.304 µM) | ≤ 0.05 | ≤ 0.05 | 6.25 (≈ 9.49 µM) | particularly strong antibacterial activities | antibacterial activity relative to the compound of Reference Example (P. maltophilia IID 1275): at least twice as strong; MIC (P. cepacia 23): ≤ 0.05 µg/mL; antibacterial activity relative to the compound of Reference Example (P. cepacia 23): at least 32 times; antibacterial activity relative to the compound of Reference Example (P. aeruginosa AK109): at least 16 times; MIC (P. aeruginosa AK109): ≤ 0.05 µg/mL; antibacterial activity relative to the compound of Reference Example (P. aeruginosa AKR17): at least 32 times; MIC (P. aeruginosa AKR17): 0.1 µg/mL (≈ 0.152 µM)
C[N+]1(CC2=C(C(=O)[O-])N3C(=O)C(NC(=O)C(=NOC4(C(=O)O)CC4)c4csc(N)n4)C3SC2)Cc2cc(O)c(O)cc2C1 (centres unmarked) [Ex. 10-E, 7-[(Z)-2-(2-aminothiazol-4-yl)-2-(1-carboxy-1-cyclopropoxyimino)acetamido]-3-(5,6-dihydroxy-2-methyl-2-isoindolinium)methyl-3-cephem-4-carboxylate] | 25 (≈ 39.6 µM) | ≤ 0.05 | ≤ 0.05 | ≤ 0.05 | 0.1 (≈ 0.159 µM) | > 25 | ≤ 0.05 | ≤ 0.05 | 0.39 (≈ 0.618 µM) | ≤ 0.05 | ≤ 0.05 | ≤ 0.05 | 1.56 (≈ 2.47 µM) | ≤ 0.05 | at least 32 times | 0.2 (≈ 0.317 µM) | ≤ 0.05 | ≤ 0.05 | 3.12 (≈ 4.95 µM) | particularly strong antibacterial activities | antibacterial activity relative to the compound of Reference Example (P. maltophilia IID 1275): at least twice as strong; MIC (P. cepacia 23): ≤ 0.05 µg/mL; antibacterial activity relative to the compound of Reference Example (P. cepacia 23): at least 32 times; antibacterial activity relative to the compound of Reference Example (P. aeruginosa AK109): at least 16 times; MIC (P. aeruginosa AK109): ≤ 0.05 µg/mL; antibacterial activity relative to the compound of Reference Example (P. aeruginosa AKR17): at least 32 times; MIC (P. aeruginosa AKR17): 0.1 µg/mL (≈ 0.159 µM)
CO/N=C(\C(=O)NC1C(=O)N2C(C(=O)[O-])=C(C[N+]3(C)Cc4cc(OC(C)=O)c(OC(C)=O)cc4C3)CSC12)c1csc(N)n1 (centres unmarked) [Ex. 3-D] | 6.25 (≈ 9.69 µM) | ≤ 0.05 | 3.12 (≈ 4.84 µM) | 0.78 (≈ 1.21 µM) | 0.2 (≈ 0.31 µM) | 25 (≈ 38.8 µM) | ≤ 0.05 | ≤ 0.05 | 6.25 (≈ 9.69 µM) | 0.2 (≈ 0.31 µM) | 0.2 (≈ 0.31 µM) | 0.1 (≈ 0.155 µM) | 6.25 (≈ 9.69 µM) | 1.56 (≈ 2.42 µM) | at least 32 times | 0.2 (≈ 0.31 µM) | 0.39 (≈ 0.605 µM) | 0.1 (≈ 0.155 µM) | 25 (≈ 38.8 µM) | particularly strong antibacterial activities | MIC (P. cepacia 23): 0.39 µg/mL (≈ 0.605 µM); antibacterial activity relative to the compound of Reference Example (P. cepacia 23): at least 32 times; antibacterial activity relative to the compound of Reference Example (P. aeruginosa AK109): at least 16 times; MIC (P. aeruginosa AK109): 0.2 µg/mL (≈ 0.31 µM); antibacterial activity relative to the compound of Reference Example (P. aeruginosa AKR17): at least 32 times; MIC (P. aeruginosa AKR17): 0.78 µg/mL (≈ 1.21 µM)
C[N+]1(CC2=C(C(=O)[O-])N3C(=O)C(NC(=O)C(=NOC4CCCC4)c4csc(N)n4)C3SC2)Cc2cc(O)c(O)cc2C1 (centres unmarked) [Ex. 13-D, 7-[(Z)-2-(2-aminothiazol-4-yl)-2-cyclopentyloxyiminoacetamido]-3-(5,6-dihydroxy-2-methyl-2-isoindolinium)methyl-3-cephem-4-carboxylate] | 3.12 (≈ 5.08 µM) | 0.025 (≈ 0.0407 µM) | 0.2 (≈ 0.325 µM) | 0.05 (≈ 0.0813 µM) | 0.1 (≈ 0.163 µM) | 12.5 (≈ 20.3 µM) | 0.05 (≈ 0.0813 µM) | 0.05 (≈ 0.0813 µM) | 0.78 (≈ 1.27 µM) | 0.1 (≈ 0.163 µM) | 0.1 (≈ 0.163 µM) | 0.05 (≈ 0.0813 µM) | 1.56 (≈ 2.54 µM) | 0.1 (≈ 0.163 µM) | at least 32 times | 0.78 (≈ 1.27 µM) | 0.05 (≈ 0.0813 µM) | 0.05 (≈ 0.0813 µM) | 12.5 (≈ 20.3 µM) | particularly strong antibacterial activities | antibacterial activity relative to the compound of Reference Example (P. maltophilia IID 1275): at least twice as strong; MIC (P. cepacia 23): 0.1 µg/mL (≈ 0.163 µM); antibacterial activity relative to the compound of Reference Example (P. cepacia 23): at least 32 times; antibacterial activity relative to the compound of Reference Example (P. aeruginosa AK109): at least 16 times; MIC (P. aeruginosa AK109): 0.05 µg/mL (≈ 0.0813 µM); antibacterial activity relative to the compound of Reference Example (P. aeruginosa AKR17): at least 32 times; MIC (P. aeruginosa AKR17): 0.39 µg/mL (≈ 0.634 µM)
